Reference: BindingDB's records for doi:10.1016/j.bmcl.2003.09.075 (Eli Lilly, 2003)

Assays:
[1] = target: NS3 protease (Hepatitis C virus); assay: Inhibitory activity against HCV protease using replicon assay […]
[2] = target: NS3 protease (Hepatitis C virus); assay: Binding affinity towards Protease using PNA assay
[3] = target: NS3 protease (Hepatitis C virus); assay: Inhibitory activity against Protease using replicon assay […] at 25 uM concentration
[4] = target: NS3 protease (Hepatitis C virus); assay: Inhibitory activity against HCV protease in enzyme inhibition assay

Structure (SMILES)	IC50 [1]	Ki [2]	IC50 [3]	Ki [4]
CCC(C)NC(=O)C(=O)[C@H](CC(F)F)NC(=O)[C@@H]1[C@H]2CCC[C@H]2CN1C(=O)[C@@H](NC(=O)[C@@H](NC(=O)c1cnccn1)C(C)C)C(C)(C)C (stereo partly drawn) [(1S,5S,6R)-2-((S)-3,3-Dimethyl-2-{(S)-3-methyl-2-[(pyrazine-2-carbonyl)-amino]-butyrylamino}-butyryl)-octahydro-cyclopenta[c]pyrrole-1-carboxylic acid [1-((S)-sec-butylaminooxalyl)-3,3-difluoro-propyl]-amide]	2610 nM	480 nM	–	–
CCC[C@H](NC(=O)[C@@H]1[C@H]2CCC[C@H]2CN1C(=O)[C@@H](NC(=O)[C@@H](NC(=O)c1cnccn1)C(C)C)C(C)(C)C)C(=O)C(=O)NC(C)CC (stereo partly drawn) [(1S,5S,6R)-2-((S)-3,3-Dimethyl-2-{(S)-3-methyl-2-[(pyrazine-2-carbonyl)-amino]-butyrylamino}-butyryl)-octahydro-cyclopenta[c]pyrrole-1-carboxylic acid [1-((S)-sec-butylaminooxalyl)-butyl]-amide]	–	210 nM	3480 nM	–
CC(C)[C@H](NC(=O)c1cnccn1)C(=O)N[C@H](C(=O)N1C[C@@H]2CCC[C@@H]2[C@H]1C(=O)N[C@@H](CC(F)F)C(=O)C(=O)N[C@@H](C)c1ccccc1)C(C)(C)C [(1S,5S,6R)-2-((S)-3,3-Dimethyl-2-{(S)-3-methyl-2-[(pyrazine-2-carbonyl)-amino]-butyrylamino}-butyryl)-octahydro-cyclopenta[c]pyrrole-1-carboxylic acid [3,3-difluoro-1-((S)-(S)-1-phenyl-ethylaminooxalyl)-propyl]-amide]	630 nM	120 nM	–	–

Next, values leading:

IC50 [1]	Ki [2]	IC50 [3]	Ki [4]	Structure (SMILES)
–	220 nM	3780 nM	–	CC(C)[C@H](NC(=O)c1cnccn1)C(=O)N[C@H](C(=O)N1C[C@@H]2CCC[C@@H]2[C@H]1C(=O)NC(CC(F)F)C(=O)C(=O)NC1CC1)C(C)C (stereo partly drawn) [(1S,5S,6R)-2-((S)-3-Methyl-2-{(S)-3-methyl-2-[(pyrazine-2-carbonyl)-amino]-butyrylamino}-butyryl)-octahydro-cyclopenta[c]pyrrole-1-carboxylic acid (1-cyclopropylaminooxalyl-3,3-difluoro-propyl)-amide]
910 nM	–	–	400 nM	CC(C)[C@H](NC(=O)c1cnccn1)C(=O)N[C@H](C(=O)N1C[C@@H]2CCC[C@@H]2[C@H]1C(=O)N[C@@H](CC(F)F)C(=O)C(=O)N[C@@H](C)c1ccccc1)C(C)C [(1S,5S,6R)-2-((S)-3-Methyl-2-{(S)-3-methyl-2-[(pyrazine-2-carbonyl)-amino]-butyrylamino}-butyryl)-octahydro-cyclopenta[c]pyrrole-1-carboxylic acid [3,3-difluoro-1-((S)-(S)-1-phenyl-ethylaminooxalyl)-propyl]-amide]
